Earlier results as cited in US9131678B1, “Ultraviolet strategy for avian repellency” (The United States of America, as represented by the …, priority 2009, dated 2015).

Columns and labels:
Blackbirds = conditions: rice seeds treated with 10,000 ppm caffeine, field conditions; >80% of untreated rice seeds consumed
[1] = tested on: male red-winged blackbirds; conditions: 2,500 ppm caffeine, male red-winged blackbirds in captivity

In the case of Cn1c(=O)c2c(ncn2C)n(C)c1=O [caffeine], the rice seeds consumed (Blackbirds) is listed as under 10% and the “reduction of rice consumption” value [1] is listed as 76%.
